Measured values from ChEMBL document CHEMBL1121882, “Approaches to vasodilating/beta-adrenergic blocking agents: examples of the dihydrolutidine type” (1981).

Assays:
Rattus norvegicus [1] = assay: Compound was tested for effect on arterial pressure in spontaneously hypertensive rats (SHR) at 5 mg/kg, po; assay type: functional, Artery
Rattus norvegicus [2] = assay: Compound was tested for effect on arterial pressure in spontaneously hypertensive rats (SHR) at 20 mg/kg administered intraperitoneally; Death; assay type: functional, organism-based; design: dose 20 mg/kg; details: Artery
Rattus norvegicus [3] = assay: Compound was tested for effect on arterial pressure in spontaneously hypertensive rats (SHR) at 1.25 mg/kg, po; assay type: functional, Artery
Rattus norvegicus [4] = assay: Compound was tested for effect on arterial pressure in spontaneously hypertensive rats (SHR) at 20 mg/kg, po; assay type: functional, Artery
Rattus norvegicus [5] = assay: Compound was tested for effect on arterial pressure in spontaneously hypertensive rats (SHR) at 20 mg/kg administered intraperitoneally; assay type: functional, Artery; details: route intraperitoneal

CCOC(=O)C1=C(C)N=C(C)/C(=C(/O)OCC)C1c1ccccc1C(F)(F)F (stereo not given)
Max fall in MAP (Rattus norvegicus [1]): 41 mmHg

CCOC(=O)C1=C(C)N=C(C)/C(=C(/O)OCC)C1c1ccc(OCC(O)CNC(C)(C)C)cc1 (stereo not given)
Max fall in MAP (Rattus norvegicus [1]): 17 mmHg
Max fall in MAP (Rattus norvegicus [2]): Death

CCOC(=O)C1=C(C)N=C(C)/C(=C(/O)OCC)C1c1ccc(OCC(O)CNC(C)(C)C)cc1C (stereo not given)
Max fall in MAP (Rattus norvegicus [1]): 42 mmHg
Max fall in MAP (Rattus norvegicus [3]): 12 mmHg
Max fall in MAP (Rattus norvegicus [2]): Death

CCOC(=O)C1=C(C)N=C(C)/C(=C(/O)OCC)C1c1ccccc1OCC(O)CNC(C)(C)C (stereo not given)
Max fall in MAP (Rattus norvegicus [4]): 16 mmHg
Max fall in MAP (Rattus norvegicus [5]): 15 mmHg

CC(C)NCC(O)COc1cccc2ccccc12 (stereo not given) [PROPRANOLOL]
Max fall in MAP (Rattus norvegicus [1]): 7 mmHg

CC(C)(C)NC[C@H](O)COc1nsnc1N1CCOCC1 [TIMOLOL]
Max fall in MAP (Rattus norvegicus [3]): -1 mmHg
